Data taken from patent publication US20040210959A1, “A Novel Method for Production of Transformed Dihaploid Corn Plants” (MONSANTO TECHNOLOGY LLC, priority 2003, published 2004).

Key:
[1] = test system: corn line D haploid callus; experiment: Chromosome doubling of haploid callus with colchicine; ploidy of regenerated plants by flow cytometry; assay type: cell-based; details: 3 days; for Diploid plants / Haploid plants / Tetraploid plants: 0.025% colchicine
Description: When a sufficient amount of transgenic callus has grown (approximately 0.25 g), the haploid callus can be doubled to produce dihaploid callus. The callus can be transferred to a 100×20 mm petri plate that contains a structure for supporting callus in a liquid medium such as three filter papers or 2 pieces of 100% acrylic felt. Those of skill in the art are aware of the numerous modifications to liquid media for supporting cultured tissues. To the Petri dish can be added a suitable culture medium lacking selection agents but containing 0.025% colchicine or other chromosome doubling agents such as Oryzalin, pronamide, or APM (amiprophos-methyl) as known to one of skill in the art (i.e., Wan et al., Theor. Appl. Genet., 81: 205-211, 1991). Enough medium and chromosome doubling agent is added to the Petri dish to keep the callus support moist, but not so much that it covers the callus. The callus is then incubated at 28° C. for 3 days in the dark.
After the co-cultivation, the callus pieces were transferred onto two pieces of 2cm^2×1 mm thick 100% acrylic felt with approximately 25 mL liquid MSW57 (Table 3) supplemented with 750 mg/L carbenicillin and 100 mg/L paromomycin in petri dishes (100 mm×25 mm) with 16 calli per plate. The plates were kept in a dark culture room at 28° C. for approximately 7-10 days after which the old medium was removed by aspiration and fresh selection medium was added to the plates. After two 10-day selection periods, the old medium was removed by aspiration and replaced with fresh MSW57 medium containing 0.025% colchicine. The tissues remained on the colchicine medium for 3 days after which the colchicine medium was removed by aspiration and replaced with fresh selection medium containing 750 mg/L carbenicillin and 100 mg/L paromomycin.
After an additional two 10-day selection periods on selection medium, the cultures were moved to a culture room with 16-h light/8-h dark photoperiod at 28° C. and the liquid medium was replaced with liquid MS-6BA medium (Table 3) with 100 mg/L paromomycin and 500 mg/L carbenicillin. After 7 days, the callus pieces were transferred onto the second regeneration medium, a hormone-free MS-based medium (MSOD, Table 3) with 100 mg/L paromomycin in petri dishes (100 mm×25 mm). In another 2 weeks, the callus pieces that had shoots regenerated or were still alive were transferred onto the same hormone-free medium in Phytatrays for further growth. Regenerated plants (R0) when they reached to the top of Phytatrays and had one or more healthy roots were moved to soil in peat pots in a growth chamber. In 7 to 10 days, they were transplanted into 12-in pots after determining by flow cytometry that they were doubled haploids. Using this procedure, 23 transgenic events were produced from a total of 528 pieces of callus exposed to Agrobacterium and selection on paromomycin (Table 6).

[2] = test system: immature embryos and callus from inbred X KHI/pehA crosses; experiment: Negative selection of pehA-containing immature embryos/callus on callus induction medium with glyceryl glyphosate; assay type: cell-based, corn; details: 10 to 14 days on callus induction medium; glyceryl glyphosate 0 to 5 mM
Description: An efficient identification of corn haploid immature embryos, and callus derived from them, can be achieved by using the negative selectable marker gene pehA (phosphonate monoesterase). Cells that express the pehA gene convert the non-toxic glycerol glyphosate to toxic glyphosate and subsequently die. It is understood, however, that other negative selectable marker genes such as cytosine deaminase (which converts 5-fluorocytosine to 5-fluorouracil, which is toxic to cell growth [Plant Cell Reports 2001; 20:738-743]) may also be used equally effectively.
Inbred lines selected for the production of haploid immature embryos or callus can be pollinated with KHI that has been transformed with, and is homozygous for, the selectable marker gene pehA. After culturing on media containing glyceryl glyphosate, diploid (pehA containing) explants fail to grow, whereas maternal haploid explants produce callus typical of the maternal inbred.
Inbred lines selected for the production of haploid immature embryos or callus were pollinated with KHI that had been transformed with, and was homozygous for, the selectable marker gene pehA. The resulting ears were harvested when their embryos were 1.25 to 2.25 mm in size. Immature embryos were plated on suitable culture media to induce the desired type of callus. […]

SMILES	doubling chromosomes of haploid callus ([1]; corn line D haploid callus, MSW57 medium with 0.025% colchicine)	Diploid plants ([1]; haploid callus line S33-B2) [%]	Haploid plants ([1]; haploid callus line S33-B2) [%]	Diploid plants ([1]; haploid callus line S41-A1) [%]	Haploid plants ([1]; haploid callus line S41-A1) [%]	Diploid plants ([1]; haploid callus line S42-B4) [%]	Haploid plants ([1]; haploid callus line S42-B4) [%]	Tetraploid plants ([1]; haploid callus line S42-B4) [%]	Diploid plants ([1]; haploid callus line S43-B1) [%]	Haploid plants ([1]; haploid callus line S43-B1) [%]	Tetraploid plants ([1]; haploid callus line S43-B1) [%]	Diploid plants ([1]; haploid callus line S49-B1) [%]	Haploid plants ([1]; haploid callus line S55-B1) [%]	Tetraploid plants ([1]; haploid callus line S55-B1) [%]	growth of diploid (pehA containing) immature embryos [2]	growth of maternal haploid immature embryos [2]
COc1cc2c(c(OC)c1OC)-c1ccc(OC)c(=O)cc1[C@@H](NC(C)=O)CC2 [colchicine]	effective in doubling chromosomes	67	33	50	50	33	33	33	50	17	33	100	33	67		
O=C(O)CNCP(=O)(O)OCC(O)CO (stereo not shown) [glyceryl glyphosate]															failed to grow	produced callus typical of maternal inbred
